Test results taken from patent US5461046A, “1-,2-,3-,4-,5-,6-,7-,8-, and/or 9-substituted dibenzoxazepine compounds, pharmaceutical compositions and methods for treating pain” (G. D. Searle & Co., priority 1993, dated 1995).
Read-outs that look alike come from different tables or passages of the source.

Tests used:
[1] = system: phenylbenzoquinone (PBQ)-induced writhing in mice; test: Writhing Assay (phenylbenzoquinone-induced writhing, analgesia); type: in vivo, Charles River male albino mice; settings: Mus musculus, 25 min, 25 min before PBQ i.p., number of mice out of ten with analgesia
Source text: The Writhing Assay is one of the most widely-used experimental procedures for measuring the analgesic activity of different narcotic and nonnarcotic analgesic agents, and involves the continuous, chemically-induced pain of visceral origin to an animal, such as a mouse or rat. [Gyires et al., Arch. int. Pharmacodyn, 267, 131-140 (1984); C. Vander Wende et al., Fed. Proc., 15, 494 (1956); Koster et al., Fed. Proc., 18, 412 (1959); and Witken et al., J. Pharmacol. exp. Ther., 133, 400-408 (1961).] Chemicals which may be used to induce this pain include phenylbenzoquinone (PBQ) and acetic acid. As a result of the chemical irritation to the animal, a characteristic stretching and writhing of the animal (dorsiflexion of the animal's back, extension of its hindlimbs and the strong contraction of its abdominal musculature) will generally occur. […] Drugs which reduce the number of writhes of the animal appear to restore the normal nociceptive threshold of the animal.
Charles River male albino mice, weighing 20 to 30 grams were used in this assay.
Twenty-five minutes after subcutaneous or intragastric administration to ten mice of 30 mg per kilogram of body weight of a compound of the present invention ("test compound"), […] per 10 g of body weight of a 0.025% w/v solution of PBQ was injected intraperitoneally into each mouse. Ten mice which were given saline in place of a test compound of the invention were used as a control group.
Five minutes later, each mouse was individually placed into a glass beaker for observation, and the number of writhes occurring during the following ten-minute period was counted.
A test compound was considered to have produced analgesia in a mouse if, in accordance with the conditions set forth above, and under the test criteria employed for this assay, after the administration of 30 mg per kilogram of body weight of a compound of the present invention to the mouse, the number of writhes elicited by a mouse injected with PBQ was equal to, or less than, one-half the median number of writhes recorded for the saline-treated control group of mice that day, as described by Taber in "Predictive Value of Analgesic Assays in Mice and Rats," Advances in Biochemical Psychopharmacology, 8, 191 (1974).
The results for the particular compounds of the present invention analyzed in this assay, and discussed in the examples identified below which correspond thereto, are presented in Table 2 hereinbelow under the heading "WRITHING ASSAY." The fractions indicate the number of mice out of ten in which a test compound produced analgesia.

[2] = target: T1, prostaglandin E2-induced contractions of segments of guinea pig ileum (Cavia porcellus, UniProt A0A286XHJ6); test: Prostaglandin (PGE) Antagonism Assay in guinea pig ileum; settings: initial concentration 3 micromolar; estimated pA2 (slope -1.0 assumed) or Schild plot pA2
T1 construct: The ilea were then quickly removed from the guinea pigs; from tissue; host or cells: ileum segments of male albino guinea pigs
T1 sequence (A0A286XHJ6 1-405): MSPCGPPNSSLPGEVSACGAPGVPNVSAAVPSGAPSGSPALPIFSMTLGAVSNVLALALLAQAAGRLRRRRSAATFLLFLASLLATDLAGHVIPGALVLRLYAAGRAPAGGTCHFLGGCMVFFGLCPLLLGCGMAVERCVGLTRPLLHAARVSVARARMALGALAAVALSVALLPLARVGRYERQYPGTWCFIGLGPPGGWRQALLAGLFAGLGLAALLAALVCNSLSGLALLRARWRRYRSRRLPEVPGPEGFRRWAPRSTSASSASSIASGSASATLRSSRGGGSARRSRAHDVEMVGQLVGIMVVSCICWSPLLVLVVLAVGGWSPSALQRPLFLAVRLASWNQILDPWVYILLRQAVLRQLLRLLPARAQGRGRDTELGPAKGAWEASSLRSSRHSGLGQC
Experimental: In order to determine the effectiveness of several of the compounds of the present invention ("test compounds") as prostaglandin E2 antagonists,a prostaglandin antagonism assay was conducted, as described below, to determine the ability of these compounds to inhibit prostaglandin E2 -induced contractions of segments of guinea pig ileum.
Male albino guinea pigs weighing 200 to 500 grams were sacrificed by cervical dislocation. The ilea were then quickly removed from the guinea pigs and placed in a modified Tyrode solution, a solution which is known to those skilled in the art, containing one-half of the usual amount of magnesium ions.
Segments of ileum about 2 cm long were then cut and mounted in a 10-mL tissue bath containing the modified Tyrode solution. The solution was maintained at 37° C. and aerated with a gaseous mixture of 95% oxygen and 5% carbon dioxide. Data for a control prostaglandin E2 dose response curve plotting concentration of prostaglandin E2 versus the intensity of contractions, detected isotonically, was then obtained by experimentally adjusting the dose of the prostaglandin E2 being injected into the tissue bath, in a manner known by those of skill in the art.
Solutions or suspensions containing an initial concentration (3 micromolar) of a test compound in modified Tyrode solution ("test solutions/suspensions") were then separately substituted for the control bath solution. Each test solution/suspension was then kept in constant contact with the ileum tissue, except for brief periods to drain the bath in preparation for rinsing with fresh test solution/suspension. A second prostaglandin E2 dose response curve was then generated for prostaglandin E2 in the presence of a test compound.
A dose ratio of EC50 doses was then calculated from the results of each test in a manner known by those of skill in the art. A test compound was determined to be "active" if the initial concentration used yielded at least a two-fold shift (dose ratio greater than or equal to 2) in the dose response curve for prostaglandin E2.
The compounds of the present invention which were tested in this assay, and for which results are presented in Table 2, correspond to the particular examples specified in Table 2.

[3] = ip, 30 mg per kg i.g., read-out: WRITHING ASSAY Number Out of Ten I.G. (converted)
[4] = sc, 30 mg per kg s.c., read-out: WRITHING ASSAY Number Out of Ten S.C.

Compound	Kb [2] [nM]	responders at 30 mg/kg [1, 3] [%]	responders at 30 mg/kg [1, 4] [%]
CCS(=O)(=O)CCC(=O)NNC(=O)N1Cc2ccccc2Oc2ccc(C(=O)OC(C)(C)C)cc21 [Example 3, Dibenz[b,f][1,4]oxazepine-8,10(11H)-dicarboxylic acid, 8-(1,1-dimethylethyl) ester, 10-[2-[3-(ethylsulfonyl)-1-oxopropyl]hydrazide]]	1780	40	30
CCS(=O)(=O)CCC(=O)NNC(=O)N1Cc2ccccc2Oc2ccc(C(=O)O)cc21 [Example 4, Dibenz[b,f][1,4]oxazepine-8,10(11H)-dicarboxylic acid, 10-[2-[3-(ethylsulfonyl)-1-oxopropyl]hydrazide]]	–	30	40
CCS(=O)(=O)CCC(=O)NNC(=O)N1Cc2ccccc2Oc2cc(C(=O)O)ccc21 [Example 6, Dibenz[b,f][1,4]oxazepine-7,10(11H)-dicarboxylic acid, 10-[2-[3-(ethylsulfonyl)-1-oxopropyl]hydrazide]]	2630	40	20
CCS(=O)(=O)CCC(=O)NNC(=O)N1Cc2ccccc2Oc2ccc(F)cc21 [Example 7, 8-fluorodibenz[b,f][1,4]oxazepine-10(11H)-carboxylic acid, 2-[3-(ethylsulfonyl)-1-oxopropyl]hydrazide]	–	40	60
CCS(=O)(=O)CCC(=O)NNC(=O)N1Cc2cc(Cl)ccc2Oc2ccccc21 [Example 8, 2-chlorodibenz[b,f][1,4]oxazepine-10(11H)-carboxylic acid, 2-[3-(ethylsulfonyl)-1-oxopropyl]hydrazide]	–	60	60
CCS(=O)(=O)CCC(=O)NNC(=O)N1Cc2ccccc2Oc2ccc(C#N)cc21 [Example 11, 8-cyanodibenz[b,f][1,4]oxazepine-10(11H)-carboxylic acid, 2-[3-(ethylsulfonyl)-1-oxopropyl]hydrazide]	–	55.6	50
CCS(=O)(=O)CCC(=O)NNC(=O)N1Cc2ccccc2Oc2ccc(NS(C)(=O)=O)cc21 [Example 14, 8-[(methylsulfonyl)amino]dibenz[b,f][1,4]-oxazepine-10(11H)-carboxylic acid, 2-[3-(ethylsulfonyl)-1-oxopropyl]hydrazide]	–	60	60
CCS(=O)(=O)CCC(=O)NNC(=O)N1Cc2ccccc2Oc2ccc(OC)cc21 [Example 16, 8-methoxydibenz[b,f][1,4]oxazepine-10(11H)-carboxylic acid, 2-[3-(ethylsulfonyl)-1-oxopropyl]hydrazide]	2000	60	20
CCS(=O)(=O)CCC(=O)NNC(=O)N1Cc2ccccc2Sc2ccc(Cl)cc21 [Example 22, 8-chloro-10,11-dihydrodibenzo[b,f][1,4]thiazepine-10-(11H) carboxylic acid, 2-[3-(ethysulfonyl)-1-oxopropyl]hydrazide]	–	60	30
CCS(=O)(=O)CCC(=O)NNC(=O)N1Cc2ccccc2S(=O)(=O)c2ccc(Cl)cc21 [Example 23, 8-chloro-10,11-dihydrodibenzo[b,f][1,4]thiazepine-10(11H) carboxylic acid, 2-[3-(ethylsulfonyl)-1-oxopropyl]hydrazide, 5,5-dioxide]	–	30	70

More lines, main results first:

Kb [2] [nM]	Compound	responders at 30 mg/kg [1, 3] [%]	responders at 30 mg/kg [1, 4] [%]
2880	CCS(=O)(=O)CCC(=O)NNC(=O)N1Cc2ccccc2Oc2ccc(C(=O)OC)cc21 [Example 1, Dibenz [b,f][1,4]oxazepine-8,10(11H)dicarboxylic acid, 8-methyl ester, 10-[2-[3-(ethylsulfonyl)-1-oxopropyl]hydrazide]]	30	50
2000	CCS(=O)(=O)CCC(=O)NNC(=O)N1Cc2ccccc2Oc2cc(C(=O)OC)ccc21 [Example 2, Dibenz[b,f][1,4]oxazepine-7,10(11H) dicarboxylic acid, 7-methyl ester, 10-[2-[3-(ethylsulfonyl)-1-oxopropyl]hydrazide]]	33.3	30
1170	CCS(=O)(=O)CCC(=O)NNC(=O)N1Cc2ccccc2Oc2cc(C(=O)OC(C)(C)C)ccc21 [Example 5, Dibenz[b,f][1,4]oxazepine-7,10(11H)-dicarboxylic acid, 7-(1,1-dimethylethyl) ester, 10-[2-[3-(ethylsulfonyl)-1-oxopropyl]hydrazide]]	20	30
1580	CCS(=O)(=O)CCC(=O)NNC(=O)N1Cc2cc(Cl)ccc2Oc2ccc(Cl)cc21 [Example 9, 2,8-dichlorodibenz[b,f][1,4]oxazepine-10(11H)-carboxylic acid, 2-[3-(ethylsulfonyl)-1-oxopropyl]hydrazide]	40	30
2880	CCS(=O)(=O)CCC(=O)NNC(=O)N1Cc2ccccc2Oc2ccc([N+](=O)[O-])cc21 [Example 10, 8-nitrodibenz[b,f][1,4]oxazepine-10(11H)-carboxylic acid, 2-[3-(ethylsulfonyl)-1-oxopropyl]hydrazide]	40	40
1150	CCS(=O)(=O)CCC(=O)NNC(=O)N1Cc2ccccc2Oc2c(Cl)cccc21 [Example 12, 6-chlorodibenz[b,f][1,4]oxazepine-10(11H)-carboxylic acid, 2-[3-(ethylsulfonyl)-1-oxopropyl]hydrazide]	30	40
2820	CCS(=O)(=O)CCC(=O)NNC(=O)N1Cc2ccccc2Oc2ccc(N)cc21 [Example 13, 8-aminodibenz[b,f][1,4]oxazepine-10(11H)-carboxylic acid, 2-[3-(ethylsulfonyl)-1-oxopropyl]hydrazide]	40	40
708	CCN(CC)c1ccc2c(c1)N(C(=O)NNC(=O)CCS(=O)(=O)CC)Cc1ccccc1O2 [Example 15, 8-(diethylamino)dibenz[b,f][1,4]oxazepine-10(11H)-carboxylic acid, 2-[3-(ethylsulfonyl)-1-oxopropyl]hydrazide]	30	10
